Laboratory results as given in patent US11591326B2, “Inhibitors of protein arginine methyltransferase 5 (PRMT5), pharmaceutical products thereof, and methods thereof” (PHARMABLOCK SCIENCES (NANJING), INC., priority 2018, dated 2023).
Like-named read-outs stand apart in the source and are kept apart here.

How the values were obtained:
[1] = system: Huh1; experiment: Liver cancer panel proliferation inhibition, Huh1; type: cell-based; conditions: Homo sapiens
Description: (§1) Inhibitory ability of compounds synthesized on the proliferation of three panels of cancer cell lines, including 5 breast cancer, 6 liver cancer, and 3 lung cancer cell lines were evaluated. Exponentially growing cells were seeded in the media of choice at various cell densities in 384-well plates with 20 ul per well and incubated overnight at 37° C., 5% CO2 incubator. Compounds were prepared as 10-point, 3-fold serial dilutions in DMSO, beginning at 6 mM. 1 μl of DMSO solutions from the compound stock plates were added to 99 ul of cell media (final top concentration of compound in the assay was 30 uM and the final concentration of DMSO was 0.5%). 20 μL of compound solutions in media were added to each well of plates with cells seeded. After adding compound solutions, assay plates were incubated for 8 and 12 days, respectively, at 37° C., 5% CO2. During this incubation period, cell media was changed every 4 days. After removing old media from cell plates, 40 ul of media with testing compounds dissolved, which were prepared by adding 1 ul of compound DMSO serial solutions to 199 ul of cell media, were added to the assay plates with the same layout as they were initially prepared. After 8 or 12 days, cell viability was measured using the CellTiter-Glo assay kit from Promega (Madison, Wis., USA) by quantitating the ATP present in the cell cultures. 20 μL of CellTiter-Glo reagent was added to each well of the cell plates. Luminescence was read after 10 minute of incubation with the Envision multiple plate reader from PerkinElmer (Waltham, Mass., USA). The concentrations of compounds inhibiting cell viability by 50% (IC50 values) were determined using a sigmoidal dose-response model (variable slopes, four parameters) in Prism 7 (La Jolla, Calif., USA).

[2] = system: Glioblastoma U-251 cell; experiment: Cell proliferation inhibition, U-251 (CellTiter-Glo); type: cell-based; conditions: Homo sapiens, U-251, incubated for 12 days (read after 8 or 12 days)
Excerpt: Materials and Cell Lines: Z-138, U251, and MIA PaCa2 cells were purchased from ATCC (American Type Culture Collection, Manassas, Va.) and Chinese Academy of Science (Shanghai, China). Iscove's Modified Dulbecco's Medium (IMDM), Dulbecco's Modified Eagle Medium (DMEM), penicillin-streptomycin, heat inactivated fetal bovine serum (FBS), and horse serum was purchased from ThermoFisher, Waltham, Mass., USA. Corning 96- and 384-well cell culture plates were purchased from ThermoFisher, Waltham, Mass., USA. Cell-Titer Glo® was purchased from Promega Corporation, Madison, Wis., USA.
In order to evaluate the inhibitory ability of compounds synthesized on the proliferation of the Glioblastoma U-251 cell, exponentially growing cells were seeded in the cell culture media of DMEM with 10% FBS and 1% penicillin-streptomycin at a concentration of 10000 cells/ml in a 384-well plate with 20 ul per well and incubated overnight at 37° C., 5% CO2 incubator. Compounds were prepared as 10-point, 3-fold serial dilutions in DMSO, beginning at 6 mM. 1 μl of DMSO solutions from the compound stock plates were added to 99 ul of cell culture media (final top concentration of compound in the assay was 30 uM and the final concentration of DMSO was 0.5%). 20 μL of compound solutions in media were added to each well of U-251 cell plates. After adding compound solutions, assay plates were incubated for 12 days at 37° C., 5% CO2. During this incubation period, cell culture media with freshly dissolved testing compounds was changed every 4 days. After removing old media from cell plates, 40 ul of media with testing compounds dissolved, which were prepared by adding 1 ul of compound DMSO serial solutions to 199 ul of cell media, were added to the assay plates with the same layout as they were initially prepared. After 8 or 12 days, cell viability was measured using the CellTiter-Glo assay kit from Promega (Madison, Wis., USA) by quantitating the ATP present in the cell cultures. 20 μL of CellTiter-Glo reagent was added to each well of the cell plates. Luminescence was read after 10 minute of incubation with the Envision multiple plate reader from PerkinElmer (Waltham, Mass., USA). The concentrations of compounds inhibiting cell viability by 50% (IC50 values) were determined using a sigmoidal dose-response model (variable slopes, four parameters) in Prism 7 (La Jolla, Calif., USA).

[3] = system: MDA-MB-468; experiment: Breast cancer panel proliferation inhibition, MDA-MB-468; type: cell-based; conditions: Homo sapiens
Description: as §1

[4] = system: Hep G2; experiment: Liver cancer panel proliferation inhibition, Hep G2; type: cell-based; conditions: Homo sapiens
Description: as §1

[5] = system: EBC-1; experiment: Lung cancer panel proliferation inhibition, EBC-1; type: cell-based; conditions: Homo sapiens
Description: as §1

[6] = Pharmacokinetic study in mouse; type: in vivo, Male CD-1 mice; conditions: male, CD-1, plasma; for plasma clearance / Vd: 2 mg/kg, Mouse PK (IV) 2 mpk; for plasma clearance: read-out: Clint (converted); for Vd: read-out: Vss; for AUC(0-t) / Cmax / Tmax / bioavailability / half-life: 10 mg/kg, Mouse PK (PO) 10 mpk; for half-life: read-out: T½ (converted)
Description: Male CD-1 mice (16-24 g; 6-8 weeks; purchased from Shanghai SLAC laboratory animal CO. LTD; n=18, with 3 per time point) were treated with a single dose of compounds being tested at 2 mg/kg by intravenous tail-vein injection and 10 mg/kg by oral gavage administration, with both doses formulated in 20% N,N-dimethylacetamide in water. Animals upon PO administration were fasted overnight and fed 4 hours after dosing. Animals upon IV administration were free access to food and water. The study was performed in accordance with the guidelines and standards of the Association for Assessment and Accreditation of Laboratory Animal Care (AAALAC International) and the National Institutes of Health.
The animals were anesthetized via isoflurane at the designated time points, and approximately 110 μL of blood sample was collected via retro-orbital puncture or cardiac puncture for stagger bleeding under the anesthesia with Isoflurane inhalation into EDTA-2K tubes. The blood samples were maintained in wet ice first and centrifuged to obtain plasma (2000 g, 4° C., 5 min) within 15 minutes post sampling. Plasma samples were stored at approximately −70° C. until analysis. For plasma samples not diluted, an aliquot of 20 μL sample was added with 200 μL IS (Propranolol, 100 ng/mL) in ACN. The mixture was vortexed for 10 min and centrifuged at 5800 rpm for 10 min. An aliquot of 0.5 μL supernatant was injected for LC-MS/MS analysis. For 10-fold diluted plasma samples, an aliquot of 2 μL sample was added with 18 μL blank diluted plasma, the dilution factor was 10. The followed operation was the same as no diluted plasma samples. Standard calibration curves were constructed by analyzing a series of control plasma aliquots containing Propranolol (100 ng/mL) as an internal standard and 1.0-3,000 ng/mL testing compounds. Compound concentrations were determine with UPLC-MS/MS-33 (Triple Quad™ 6500 Plus).

[7] = HuH-1, 192 h, Huh1, 8 days, read-out: IC50 (μM) 8 days
[8] = HuH-1, 288 h, Huh1, 12 days, read-out: IC50 (μM) 12 days
[9] = 192 h, MDA-MB-468, 8 days, read-out: IC50 (μM) 8 days
[10] = 288 h, MDA-MB-468, 12 days, read-out: IC50 (μM) 12 days
[11] = HepG2, 192 h, Hep G2, 8 days, read-out: IC50 (μM) 8 days
[12] = HepG2, 288 h, Hep G2, 12 days, read-out: IC50 (μM) 12 days
[13] = 192 h, EBC-1, 8 days, read-out: IC50 (μM) 8 days
[14] = 288 h, EBC-1, 12 days, read-out: IC50 (μM) 12 days

Row | IC50 [1, 7] [µM] | IC50 [1, 8] [µM] | IC50 [2] [µM] | IC50 [3, 9] [µM] | IC50 [3, 10] [µM] | IC50 [4, 11] [µM] | IC50 [4, 12] [µM] | IC50 [5, 13] [µM] | IC50 [5, 14] [µM] | plasma clearance [6] [mL/min/kg] | Vd [6] [L/kg] | AUC(0-t) [6] [ng·h/mL] | Cmax [6] [ng/mL] | Tmax [6] [h] | bioavailability [6] [%] | half-life [6] [h] | Compound
1 | 0.54 | 0.075 | 0.293 | 0.022 | 0.0038 | 3.09 | 0.97 | 0.028 | 0.031 | 50.7 | 2.25 | 2720 | 3080 | 0.25 | 83 | 2.86 | CC(=O)N1CCC(Nc2ccc3c(c2)C(=O)N(C[C@H](O)CN2CCc4ccccc4C2)CCO3)CC1 [Compound 52a, (R)-7-((1-acetylpiperidin-4-yl)amino)-4-(3-(3,4-dihydroisoquinolin-2(1H)-yl)-2-hydroxypropyl)-3,4-dihydrobenzo[f][1,4]oxazepin-5(2H)-one]
2 | 1.92 | 0.085 | 0.17 | 0.044 | 0.0074 | > 10 | 3.26 | 0.062 | 0.057 | 44.7 | 1.48 | 2420 | 761 | 2 | 64.9 | 0.798 | CC(=O)N1CCC(Nc2cc(C(=O)NC[C@H](O)CN3CCc4ccccc4C3)ncn2)CC1 [Compound C3, reference compound]
3 | 0.44 | 0.041 | 0.097 | 0.042 | 0.0041 | 2.87 | 0.77 | 0.025 | 0.03 | 35.7 | 2.48 | 3410 | 3580 | 0.25 | 73.3 | 1.22 | CC(=O)N1CCC(Nc2ccc3c(c2)C(=O)N(C[C@H](O)CN2CCc4ccccc4C2)CC3)CC1 [Compound 24a, (R)-7-((1-acetylpiperidin-4-yl)amino)-2-(3-(3,4-dihydroisoquinolin-2(1H)-yl)-2-hydroxypropyl)-3,4-dihydroisoquinolin-1(2H)-one]
